The source of these data is article PMC5885141 (Molecular imaging and biology : MIB : the official …, 2014).

IR800 = IRDye800CW

The test system of one assay is GRPr and NMB-R. Particulars: with or without a chelated metal ion; same assay as in Fig. 2; ref [31]; cited from earlier work.
In a further assay the test system is PC-3 cells. The experiment in a line: Direct binding assay in PC-3 cells by fluorescence microscopy. Format: cell-based, human. Conditions: 2 μM, 2 h incubation.

In general, IC50 refers to the concentration that inhibits the measured activity by half. For the substance DO3A-CH2CO-G-ABz4-QWAVGHLM-NH2 [AMBA], in the assay on GRPr and NMB-R, the IC50 was 2 to 5 nM.

On to “IR800-GSG-t-BBN: IR800-linker-QWAVGHLM-NH2 with linker = GSG (IR800-GSGQWAVGHLM-NH2)”, for which the “Direct binding to PC-3 cells (fluorescence microscopy)” value with PC-3 cells is on record as “bound to PC-3 cells to widely different extents”.
